Assays:
[1] = cited from earlier work
[2] = after an IV dose, PET; cited from earlier work
[3] = In vitro volatilization test; type: physicochemical; settings: 40 mg in petri dish on hot plate
Text: In order to further assess the abuse-resistance performance of abuse-resistant dosage forms produced according to the present invention, the following in vitro volatilization test was developed. In particular, intentional abuse of controlled release pharmaceutical dosage forms may alternatively be carried out by volatilization (smoking, or free-basing) techniques that can liberate active agent (in immediately active form) from commercially available controlled release carrier systems. Accordingly, a preliminary in vitro volatilization test was developed in order to assess: (1) whether a free base form of an active agent (in this case, oxycodone) was more volatile than the salt (HCl) form; and (2) whether abuse-resistant dosage forms produced according to the instant invention can prevent inhalation abuse through volatilization.
Each petri dish was fitted with a watch glass as a cover, and the covered test dishes were placed on a hot plate (setting 10). After 30 seconds each watch glass was replaced with a fresh watch glass, and this step was repeated three times (to obtain 4 time points). Any residue deposited on the bottom side of the test watch glasses was carefully transferred with an Alpha Swab (TX 761) into 40/60 ethanol/0.005M HCl solution, and the concentration of oxycodone solution was determined by HPLC. The observations taken during the test were as follows. […]

COC(=O)C(c1ccccc1)C1CCCCN1 (racemic) [methylphenidate, dl-threo-methyl-2-phenyl-2-(2-piperidyl) acetate]
dose deesterified to the inactive major metabolite, ritalinic acid ([1]; excreted in the urine): About 70%
Tmax following oral administration (mean) ([1]; immediate release, oral): 1.5 h
d-threo to l-threo plasma concentration ratio ([1]; in vivo): ~10:1
systemic half-life ([1]; in vivo): approximately 3 hours

COC(=O)C(c1ccccc1)C1CCCCN1 (centres unmarked) [^11C-labeled methylphenidate]
brain clearance half life [2]: 1.5 h
brain uptake Tmax [2]: < 0.167 h

COc1ccc2c3c1O[C@H]1C(=O)CC[C@@]4(O)[C@@H](C2)N(C)CC[C@]314.Cl [oxycodone HCl]
observation upon heating in volatilization test [3]: extensive degradation and charring

COc1ccc2c3c1O[C@H]1C(=O)CC[C@@]4(O)[C@@H](C2)N(C)CC[C@]314 [oxycodone free base form, oxycodone]
observation upon heating in volatilization test [3]: vaporizes/sublimes upon heating
